In ChEMBL document CHEMBL1133144, “Synthesis and structure-activity relationships of a new class of 1-oxacephem-based human chymase inhibitors” (Bioorg Med Chem Lett, 2000):

Legend:
Chymase = target: T1, Chymase (Homo sapiens, UniProt P23946); test: Inhibitory activity against human serine protease chymase
T1 sequence (P23946 whole entry): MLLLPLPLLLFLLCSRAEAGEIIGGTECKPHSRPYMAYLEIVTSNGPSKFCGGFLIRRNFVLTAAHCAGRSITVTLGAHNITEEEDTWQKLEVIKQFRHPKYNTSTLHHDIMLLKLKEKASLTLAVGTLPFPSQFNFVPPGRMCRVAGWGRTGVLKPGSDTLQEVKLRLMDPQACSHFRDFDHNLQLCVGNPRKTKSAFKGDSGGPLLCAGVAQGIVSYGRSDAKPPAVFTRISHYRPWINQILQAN

Cathepsin G = target: T2, Cathepsin G (Homo sapiens, UniProt P08311); test: The compound was evaluated for the inhibitory activity against cathepsin G
T2 sequence (P08311 whole entry): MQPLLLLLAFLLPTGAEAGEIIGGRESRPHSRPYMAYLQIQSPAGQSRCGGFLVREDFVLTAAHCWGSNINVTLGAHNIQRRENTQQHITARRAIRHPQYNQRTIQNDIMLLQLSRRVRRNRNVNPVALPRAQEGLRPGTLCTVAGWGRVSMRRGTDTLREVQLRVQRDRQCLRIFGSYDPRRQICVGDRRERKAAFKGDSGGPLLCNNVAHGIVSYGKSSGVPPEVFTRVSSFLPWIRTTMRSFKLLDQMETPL

Neutrophil elastase = target: T3, Neutrophil elastase (Homo sapiens, UniProt P08246); test: The compound was evaluated for the inhibitory activity against human neutrophil elastase
T3 sequence (P08246 whole entry): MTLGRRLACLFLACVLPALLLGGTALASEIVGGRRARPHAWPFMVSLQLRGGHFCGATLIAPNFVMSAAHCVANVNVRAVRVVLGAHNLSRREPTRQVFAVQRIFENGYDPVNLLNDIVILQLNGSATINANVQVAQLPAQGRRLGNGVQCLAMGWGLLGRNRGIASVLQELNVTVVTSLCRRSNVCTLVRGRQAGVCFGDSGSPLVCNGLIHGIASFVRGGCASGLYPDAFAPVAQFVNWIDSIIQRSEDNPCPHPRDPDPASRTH

Plasminogen = Plasminogen (Homo sapiens, UniProt P00747); test: The compound was evaluated for the inhibitory activity against plasmin
Prothrombin = Prothrombin (Homo sapiens, UniProt P00734); test: The compound was evaluated for the inhibitory activity against thrombin
Serine protease 1 = target: T4, Serine protease 1 (Bos taurus, UniProt P00760); test: The compound was evaluated for the inhibitory activity against trypsin
T4 sequence (P00760 whole entry): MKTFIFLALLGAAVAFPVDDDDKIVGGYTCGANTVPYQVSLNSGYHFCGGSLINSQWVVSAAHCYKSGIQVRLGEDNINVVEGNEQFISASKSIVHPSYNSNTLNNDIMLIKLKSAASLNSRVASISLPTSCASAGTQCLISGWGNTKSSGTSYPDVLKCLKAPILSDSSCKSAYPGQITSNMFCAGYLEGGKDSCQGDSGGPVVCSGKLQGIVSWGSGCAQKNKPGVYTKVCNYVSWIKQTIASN

Chain of Plasminogen (P00747 97-580 limits assumed): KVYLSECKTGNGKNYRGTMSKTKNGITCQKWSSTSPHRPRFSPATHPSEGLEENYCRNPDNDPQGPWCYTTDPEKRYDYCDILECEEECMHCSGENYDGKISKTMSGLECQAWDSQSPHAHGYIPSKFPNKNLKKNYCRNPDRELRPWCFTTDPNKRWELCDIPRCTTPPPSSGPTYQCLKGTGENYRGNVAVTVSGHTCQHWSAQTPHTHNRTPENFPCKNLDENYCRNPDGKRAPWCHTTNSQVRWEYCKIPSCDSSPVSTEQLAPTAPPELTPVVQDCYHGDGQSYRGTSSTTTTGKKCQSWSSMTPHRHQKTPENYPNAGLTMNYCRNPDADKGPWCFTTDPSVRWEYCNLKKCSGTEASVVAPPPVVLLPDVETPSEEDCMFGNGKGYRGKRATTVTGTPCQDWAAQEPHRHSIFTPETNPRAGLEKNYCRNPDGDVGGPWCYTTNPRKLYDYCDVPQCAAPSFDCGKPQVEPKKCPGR
Chain of Plasminogen (P00747 581-810 limits assumed): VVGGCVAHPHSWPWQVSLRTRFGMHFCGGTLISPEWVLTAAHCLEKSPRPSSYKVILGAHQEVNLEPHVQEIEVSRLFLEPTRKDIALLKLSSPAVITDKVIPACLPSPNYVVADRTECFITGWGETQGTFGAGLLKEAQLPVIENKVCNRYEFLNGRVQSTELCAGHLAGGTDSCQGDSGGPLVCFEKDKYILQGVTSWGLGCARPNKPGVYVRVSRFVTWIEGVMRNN

Row | SMILES | IC50 (Chymase) | further results
1 | CO[C@@]1(NC(=O)Cc2ccc(-c3ccccc3)cc2)C(=O)N2C(C(=O)OC(c3ccccc3)c3ccccc3)=C(CSc3nnnn3C)CO[C@@H]21 | > 10000 nM | –
2 | CO[C@@]1(NC(=O)Cc2ccc(Br)cc2)C(=O)N2C(C(=O)OC(c3ccccc3)c3ccccc3)=C(CSc3nnnn3C)CO[C@@H]21 | 6800 nM | –
3 | COc1ccc(C(=O)N[C@]2(OC)C(=O)N3C(C(=O)OC(c4ccccc4)c4ccccc4)=C(CSc4nnnn4C)CO[C@@H]32)cc1 | > 10000 nM | –
4 | COc1ccccc1C(=O)N[C@]1(OC)C(=O)N2C(C(=O)OCc3cccc(C)c3)=C(CSc3nncn3CC(=O)O)CO[C@@H]21 | – | IC50 (Cathepsin G): 230 nM; IC50 (Neutrophil elastase): > 10000 nM; IC50 (Plasminogen): > 10000 nM; IC50 (Prothrombin): 430 nM; IC50 (Serine protease 1): 440 nM
5 | CO[C@@]1(NC(=O)Cc2ccc(O)cc2)C(=O)N2C(C(=O)OCc3cccc(C)c3)=C(CCl)CO[C@@H]21 | 150 nM | –
6 | CO[C@@]1(NC(=O)Cc2ccc(O)cc2)C(=O)N2C(C(=O)OCc3cccc(C)c3)=C(CSc3nncn3C)CO[C@@H]21 | 4000 nM | –
7 | CO[C@@]1(NC(=O)Cc2ccc(O)cc2)C(=O)N2C(C(=O)N3CCCC3)=C(CSc3nnnn3C)CO[C@@H]21 | > 10000 nM | –
8 | CO[C@@]1(NC(=O)Cc2ccc(O)cc2)C(=O)N2C(C(=O)OCc3cccc(C)c3)=C(C)CO[C@@H]21 | > 10000 nM | –
9 | CO[C@@]1(NC(=O)c2ccccc2Cl)C(=O)N2C(C(=O)OC(c3ccccc3)c3ccccc3)=C(CSc3nnnn3C)CO[C@@H]21 | 1700 nM | –
